Results: patent US6784181B2, “Piperazine-containing compounds useful in the treatment of pain” (AstraZeneca AB, priority 1999, dated 2004)
Where a name gives a salt, the structure may show the parent alone. Read-outs that look alike come from different tables or passages of the source.

How the values were obtained:
[1] = biological target: T1, cloned human δ receptors (HDELTA) (Homo sapiens, UniProt P41143); assay: Binding assay, membranes of 293S cells expressing cloned human δ receptor
T1 construct: expressed in transfected cells; host or cells: human 293S cells (geneticin-selected), membranes

HDELTA = biological target: T2, HDELTA (Homo sapiens, UniProt P41143); assay: Functional agonism HDELTA (EC50, % EMAX); format: biochemical
T2 construct: expressed in transfected cells

RAT BRAIN = RAT BRAIN (Rattus norvegicus, UniProt P33533); assay: Functional agonism rat brain (EC50, % EMAX); format: biochemical
MOUSE BRAIN = MOUSE BRAIN (Mus musculus, UniProt P32300); assay: Functional agonism mouse brain (EC50, % EMAX); format: biochemical
[2] = Metabolic stability MLM (% remaining); format: in vitro ADME, mouse
[3] = Metabolic stability RLM (% remaining); format: in vitro ADME, rat
[4] = displacement of radioligand, human δ receptor membranes, read-out: HDELTA

RAT BRAIN, sequence (P33533 whole entry): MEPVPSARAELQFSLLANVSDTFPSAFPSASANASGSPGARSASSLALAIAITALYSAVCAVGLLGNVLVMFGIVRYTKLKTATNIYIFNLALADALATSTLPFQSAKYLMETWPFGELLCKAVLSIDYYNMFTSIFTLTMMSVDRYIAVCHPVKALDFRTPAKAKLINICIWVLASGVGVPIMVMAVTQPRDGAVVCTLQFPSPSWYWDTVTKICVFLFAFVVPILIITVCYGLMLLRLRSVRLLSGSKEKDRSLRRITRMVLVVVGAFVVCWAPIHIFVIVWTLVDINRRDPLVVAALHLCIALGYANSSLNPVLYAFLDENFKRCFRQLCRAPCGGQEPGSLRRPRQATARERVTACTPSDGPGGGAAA
T1 sequence (P41143 whole entry): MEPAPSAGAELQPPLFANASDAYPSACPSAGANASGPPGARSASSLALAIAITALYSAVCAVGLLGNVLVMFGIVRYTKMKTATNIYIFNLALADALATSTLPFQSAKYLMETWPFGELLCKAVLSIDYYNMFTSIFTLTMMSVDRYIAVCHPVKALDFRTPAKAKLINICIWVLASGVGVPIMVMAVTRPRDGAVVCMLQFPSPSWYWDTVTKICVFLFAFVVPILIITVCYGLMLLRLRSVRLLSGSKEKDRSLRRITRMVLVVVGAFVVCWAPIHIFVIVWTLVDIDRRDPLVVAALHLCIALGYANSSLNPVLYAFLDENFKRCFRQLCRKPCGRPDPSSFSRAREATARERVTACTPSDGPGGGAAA
T2 sequence (P41143 whole entry): as above
MOUSE BRAIN, sequence (P32300 whole entry): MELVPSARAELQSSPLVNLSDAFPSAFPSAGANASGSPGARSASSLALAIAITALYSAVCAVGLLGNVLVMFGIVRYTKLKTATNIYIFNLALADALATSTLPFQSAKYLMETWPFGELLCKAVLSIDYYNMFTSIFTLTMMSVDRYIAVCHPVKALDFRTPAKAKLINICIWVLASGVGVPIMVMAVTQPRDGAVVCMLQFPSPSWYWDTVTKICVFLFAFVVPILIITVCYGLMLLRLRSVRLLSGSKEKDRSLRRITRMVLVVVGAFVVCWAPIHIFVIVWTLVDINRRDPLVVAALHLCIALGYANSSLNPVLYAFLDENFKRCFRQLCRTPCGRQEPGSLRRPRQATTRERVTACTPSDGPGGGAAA

Row | Structure (SMILES) | IC50 [1] [nM] | EC50 (HDELTA) [nM] | Emax (HDELTA) [%] | Emax (RAT BRAIN) [%] | Emax (MOUSE BRAIN) [%] | MLM 10000 % rem. [2] [% rem.] | MLM 100000 % rem. [2] [% rem.] | RLM 10000 % rem. [3] [% rem.] | RLM 100000 % rem. [3] [% rem.] | IC50 [1, 4] [nM] | EC50 (HDELTA; read-out: HDELTA EC50) [nM] | HDELTA % EMAX (HDELTA) [%] | EC50 (RAT BRAIN) [nM] | RAT BRAIN % EMAX (RAT BRAIN) [%] | EC50 (MOUSE BRAIN) [nM] | MOUSE BRAIN % EMAX (MOUSE BRAIN) [%]
1 | CCN(CC)C(=O)c1ccc(C(c2cccc3cccnc23)N2CCN(Cc3ccccn3)CC2)cc1 (stereo not drawn) [Example 12, N,N-diethyl-4-[[4-(2-pyridinylmethyl)-1-piperazinyl](8-quinolinyl)methyl]benzamide Dihydrochloride] | 0.692 | 0.76 | 97.7 | 106 | 91.3 | 0 | 53.5 | 21.5 | 66 |  |  |  |  |  |  | 
2 | CCN(CC)C(=O)c1ccc(C(c2cccc3cccnc23)N2CCN(Cc3ccsc3)CC2)cc1 (stereo not drawn) [Example 13, N,N-diethyl-4-[[4-(3-thienylmethyl)-1-piperazinyl](8-quinolinyl)methyl]benzamide] | 1.03 | 1.44 | 101 | 112 | 113 | 1.667 | 71.667 | 10 | 62.667 |  |  |  |  |  |  | 
3 | CCN(CC)C(=O)c1ccc(C(c2cccc3cccnc23)N2CCN(Cc3ccco3)CC2)cc1 (stereo not drawn) [Example 14, N,N-diethyl-4-[[4-(2-furanylmethyl)-1-piperazinyl](8-quinolinyl)methyl]benzamide] | 0.181 | 0.76 | 88.7 | 102 | 106 | 0 | 49 | 13.5 | 84.5 |  |  |  |  |  |  | 
4 | CCN(CC)C(=O)c1ccc(C(c2cccc3cccnc23)N2CCN(Cc3ccoc3)CC2)cc1 (stereo not drawn) [Example 15, N,N-diethyl-4-[[4-(3-furanylmethyl)-1-piperazinyl](8-quinolinyl)methyl]benzamide] | 0.787 | 0.79 | 89 | 109 | 110 | 0 | 68 | 10 | 86 |  |  |  |  |  |  | 
5 | CCN(CC)C(=O)c1ccc(C(c2cccc3cccnc23)N2CCN(Cc3cccs3)CC2)cc1.Cl.Cl (stereo not drawn) [Example 16, N,N-diethyl-4-[[4-(2-thiophenylmethyl)-1-piperazinyl](8-quinolinyl)methyl]benzamide Dihydrochloride] | 1.51 | 2.39 | 99.4 | 100 | 98.4 | 0.5 | 46.5 | 9.5 | 64.5 |  |  |  |  |  |  | 
6 | CCN(CC)C(=O)c1ccc(C(c2cccc3cccnc23)N2CCN(Cc3ncc[nH]3)CC2)cc1.Cl.Cl (stereo not drawn) [Example 17, N,N-diethyl-4-[[4-(2-imidazolylmethyl)-1-piperazinyl](8-quinolinyl)methyl]benzamide Dihydrochloride] | 1.09 | 3.03 | 95.7 | 106 | 92.5 | 0 | 21.5 | 5.5 | 75 |  |  |  |  |  |  | 
7 | CCN(CC)C(=O)c1ccc(C(c2cccc3cccnc23)N2CCN(Cc3c[nH]cn3)CC2)cc1 (stereo not drawn) [Example 18, N,N-diethyl-4-[[4-(4-imidazolylmethyl)-1-piperazinyl](8-quinolinyl)methyl]benzamide Dihydrochloride] |  |  | 93.8 | 111 | 108 |  |  |  |  | 1.54 | 5.85 |  |  |  |  | 
8 | CCN(CC)C(=O)c1ccc(C(c2cccc3cccnc23)N2CCN(Cc3nc[nH]n3)CC2)cc1.Cl.Cl (stereo not drawn) [Example 19, N,N-diethyl-4-[[4-(3-triazolylmethyl)-1-piperazinyl](8-quinolinyl)methyl]benzamide Dihydrochloride] |  |  |  |  |  |  |  |  |  | 18.8 | 85.2 | 97.88 | 2810 | 56.35 | 1370 | 48.68
